Test results: US20190054054A1, “Methods reducing or preventing oxidation of high density lipoprotein (HDL)” (Amarin Pharmaceuticals Ireland Limited, priority 2017, published 2019)

Key:
HUVECs = assay: NO and ONOO^− release from HUVECs pretreated with agents, then exposed to oxLDL (Example 11, Objective 1); assay type: cell-based, human; conditions: pretreatment 30 min, agents at 10 μM, then oxLDL 11 mg/dL up to 3 hr; for NO / ONOO^−: calcium ionophore 1.0 μM
Experimental: The omega-3 fatty acid, cis-5,8,11,14,17-eicosapentaenoic acid (EPA) and docosahexaenoic acid (DHA) were purchased from Sigma-Aldrich (Saint Louis, Mo.) and solubilized in redistilled ethanol to 11 mM under nitrogen atmosphere. EPA and DHA stock solutions were stored at −20° C. until use.
Human umbilical vein endothelial cells (HUVECs) were obtained from healthy, female donors and isolated into primary, proliferating cell cultures (Clonetics, San Diego, Calif.). […] The confluent cells (4 to 5×10^5 cells/35 mm dish) were plated with minimum essential medium containing 3 mM L-arginine and 0.1 mM BH4 [(6R)-5,6,7,8-tetrahydrobiopterin]. Before experimental use, the cells (from second or third passage) were rinsed twice with Tyrode-HEPES buffer with 1.8 mM CaCl2.
Venous blood was collected from healthy volunteers into vacutainer tubes containing sodium EDTA. […] The LDL subfraction was retained for additional experimentation. Plasma and lipoprotein fractions were maintained at 4° C. and protected from excessive exposure to light. Prior to oxidation experiments, EDTA was removed from the lipoprotein fraction using PD-10 desalting columns (GE Healthcare, Piscataway N.J.). After equilibration of the column with phosphate buffered saline (PBS), 2.5 mL of the lipoprotein fraction was loaded on the column and the flow-through discarded. The lipoprotein was then eluted with 3 mL of PBS. The LDL fractions were further diluted with PBS to obtain a 100 μg/mL apoB100 concentration.
LDL underwent oxidation following the addition of 10 μM CuSO4. To measure oxidation, 100 μL aliquots were removed and combined with 1.0 mL thiobarbituric acid (0.5%), 10 μL trichloroacetic acid (5%), 10 μL BHT (5 mg/mL in methanol), and 10 μL EDTA (5 mM). […] Sample TBARS concentrations were determined spectrophotometrically by measuring sample absorbances against a standard curve derived from the hydrolysis of 1,1,3,3-tetramethoxypropane.
Concurrent measurements of NO and ONOO^− were performed with tandem electrochemical nanosensors combined into one working unit with a total diameter of 200-400 nm. Their design is based on previously developed and chemically modified carbon-fiber technology. Each of the nanosensors was made by depositing a sensing material on the tip of a carbon fiber (length 4 to 5 μm, diameter 100-200 nm). The fibers were sealed with nonconductive epoxy and electrically connected to copper wires with conductive silver epoxy. Conductive films of polymeric Ni(II) tetrakis (3-methoxy-4-hydroxyphenyl) porphyrin and Mn(III) [2.2] paracyclophanyl-porphyrin were used for the NO and ONOO^− sensors, respectively.
The amperometric method (with a response time of 0.1 ms) provides a quantitative signal (current) that is directly proportional to changes (from basal levels) in NO or ONOO^− concentration. Amperometric measurements were performed with a Gamry III double-channel potentiostat. Basal NO or ONOO^− levels were measured by differential pulse voltammetry in separate experiments.
All measurements of NO and ONOO^− were performed on intact endothelial cells. The NO/ONOO^− nanosensor module was positioned 5±2 μm from the surface of each individual endothelial cell using a computer-controlled M3301 micromanipulator (x-y-z resolution of 0.2 μm) and microscope (both from World Precision Instruments, Berlin, Germany) fitted with a CD camera. […] Cells will then be treated with calcium ionophore (to maximally stimulate the release of nitrous molecules) and monitored continuously for changes in amperometric current.
Data are presented as mean+S.D. for (N) separate samples or treatment groups. Differences between groups were analyzed using the two-tailed, Student's t-test (for comparisons between only two groups) or ANOVA followed by Dunnett or Student-Newman-Keuls multiple comparisons post-hoc analysis (for comparisons between three or more groups). Alpha error was set to 0.05 in this study.
NO and ONOO^− release were measured following stimulation with calcium.

[1] = tested on: sdLDL isolated from human subjects under conditions of hyperglycemia; assay: Glucose-induced sdLDL oxidation, MDA/TBARS (Example 10); assay type: biochemical; conditions: 200 mg/dL glucose; for effect on glucose-induced sdLDL oxidation: 10.0 μM
Experimental: Vitamin E (α-tocopherol) purchased from Sigma-Aldrich was prepared in ethanol at 1.0 mM (E=[…] at 294 nm) prior to experimental use. Test compounds were further diluted in ethanol or aqueous buffer as needed. Phosphate Buffered Saline (PBS) purchased from Sigma-Aldrich was prepared in double distilled water at 10 mM (138 mM NaCl, 2.7 mM KCl, pH 7.4). […] Lipid oxidation was measured by the colorimetric detection of malondialdehyde (MDA), a marker of oxidative stress. Data were presented as mean±SD for (n) separate samples or experiments. Differences between groups were analyzed using the unpaired, two-tailed Student's t-test (for comparisons between only two groups) or ANOVA followed by Student-Newman-Keuls multiple comparisons post hoc analysis (for comparisons between three or more groups).

IC50 ([1]; read-out: IC50, inhibition of glucose-induced sdLDL oxidation) [µM] | Compound | NO (HUVECs) | ONOO^− (HUVECs) | inhibition of sdLDL oxidation as compared to vehicle controls ([1]; highest concentration tested) [%] | sdLDL oxidation (formation of MDA) ([1]; highest concentration tested, unit of the source corrected) [µM] | NO/ONOO^− Ratio (HUVECs) | NO/ONOO^− Ratio (HUVECs; listed as Gemfib) | effect on glucose-induced sdLDL oxidation [1] | NO/ONOO^− Ratio (HUVECs; listed as Niacin) | increase in sdLDL oxidation as compared to glucose-treated controls [1] [%]
– | CC/C=C\C/C=C\C/C=C\C/C=C\C/C=C\C/C=C\CCC(=O)O [DHA, docosahexaenoic acid] | 378 ± 5 | 229 ± 16 | – | – | – | – | – | – | –
< 1 | CC/C=C\C/C=C\C/C=C\C/C=C\C/C=C\CCCC(=O)O [EPA, cis-5,8,11,14,17-eicosapentaenoic acid] | 394 ± 43 | 228 ± 10 | 94 | 0.2 ± 0.1 | – | – | – | – | –
– | Cc1ccc(C)c(OCCCC(C)(C)C(=O)O)c1 [gemfibrozil] | 377 ± 24 | 228 ± 11 | – | – | 1.65±0.13 | 1.65 ± 0.13 | did not inhibit glucose-induced sdLDL oxidation | – | –
– | O=C(O)c1cccnc1 [niacin, nicotinic acid] | 346 ± 17 | 238 ± 20 | – | – | 1.45±0.14 | – | did not inhibit glucose-induced sdLDL oxidation | 1.45 ± 0.14 | –
– | Cc1c(C)c2c(c(C)c1O)CC[C@@](C)(CCC[C@H](C)CCC[C@H](C)CCCC(C)C)O2 [vitamin E, α-tocopherol] | – | – | – | – | – | – | failed to inhibit sdLDL oxidation | – | 63
